Laboratory results: patent US20220025003A1, “REAGENTS AND METHODS FOR CONTROLLING PROTEIN FUNCTION AND INTERACTION” (University of Washington, priority 2018, published 2022)

Legend:
NS3a in NIH3T3 cells [1] = assay: Confocal microscopy for colocalization analysis (fixed cells); format: cell-based; details: 10 μM drug, 1 h
Experimental: A Leica SP8× system was used for confocal microscopy. […] TagBFP emission was recorded on a PMT detector, and EGFP and mCherry™ were detected by separate HyD™ detectors.
Colocalization experiments were performed in NIH3T3 cells (Flp-In-3T3, Thermo Fisher Scientific). For fixed-cell experiments, cells were plated at 3×10^4 cells/mL on sterile glass coverslides placed in 12-well culture plates. […] One day after transfection, cells were treated with drug or DMSO and fixed. Drug additions were performed by exchanging the media for DMEM+10% v/v FBS plus drug. To fix, cells were washed once with DPBS (Thermo Fisher Scientific), then incubated with 4% v/v paraformaldehyde in DPBS for 15 minutes. After washing twice with DPBS, coverslides with cells were removed from the plate and mounted on glass slides using Fluoromount-G (SouthernBiotech).
Colocalization of NS3a and DNCR1 at the plasma membrane, nucleus, mitochondria and Golgi was performed with two sets of constructs, with either NS3a or DNCR1 as the immobilized component. mCherry™-NS3a was used with Tom20-DNCR1-EGFP, DNCR1-EGFP-Giantin, and 3×NLS-DNCR1-EGFP. […] Colocalization was analyzed after 1 h of 10 μM drug or equal volume DMSO treatment.
All images were analyzed using ImageJ. […] EGFP fluorescence was quantified in the ROI over the timecourse. […] The cytoplasmic fluorescence was normalized to the value in the first and last frame for each cell. […]

GFP, CD95 and CXCR4 = assay: 3-gene experiment (GFP, CD95, CXCR4) by RT-qPCR; format: cell-based; details: 10 μM danoprevir, 1 μM grazoprevir, 1 μM asunaprevir
Description: Cells were harvested on day 5 as described above for other samples to be analyzed to qPCR.

NS3a in NIH3T3 cells [2] = assay: Confocal microscopy for colocalization analysis (fixed cells); format: cell-based; details: for DNCR2-EGFP colocalization with mitochondrial Tom20-mCherry-NS3a: 10 μM drug, 1 h
[3] = test system: RAS/ERK pathway in HEK293 cells; assay: Activation of NS3a-CDAR, phospho-ERK blot; format: cell-based; details: 10 μM drug, 60 min
Experimental: 18-24 hours prior to transfection, 3.0×10^5 HEK293 cells were plated onto poly-D-lysine 12 well plates. Immediately prior to transfection, media was aspirated and cells were washed with 1 mL of pre-warmed (37° C.) PBS, then serum starved with FBS-free DMEM. Following serum starvation, cells were transfected with 1 μg of FLAG-tagged NS3a-CDAR, BH3-NS3a-CDAR, or an empty pCDNA5 vector. Transfected cells were allowed to serum stave for 18-20 hours prior to drug treatment. For drug treatment, serum-free media was prepared with DMSO or 10 μM of a drug. Media was aspirated, washed once with pre-warmed DPBS, then treated with drug/DMSO media for the requisite amount of time. Media was subsequently aspirated and the cells were washed twice with 1 mL chilled PBS, then lysed with 75 μL Mod. RIPA buffer (50 mM Tris, pH 7.8, 1% IGEPAL CA-630, 150 mM NaCl, 1 mM EDTA, 2 mM Na3VO4, 30 mM NaF, Pierce Protease Inhibitor Tablet). Cleared lysates were subjected to SDS-PAGE and transferred to nitrocellulose. Blocking and antibody incubations were done in TBS with 0.1% Tween-20 (v/v) and blocking buffer (Odyssey). Primary antibodies were all purchased from Cell Signaling Technologies and were diluted as follows: Total ERK (1:2500, #9107), phosphorylated ERK (1:2500, #4370), FLAG (1:2,500, #D6W5B). Blots were washed three times in TBS with 0.1% Tween-20. Antibody binding was detected by using near-infrared-dye-conjugated secondary antibodies and visualized on the LI-COR Odyssey scanner. Blots were quantified via densitometry with Image Studio (LI-COR).

NS3a protease = biological target: T1, NS3a protease (Hepatitis C virus genotype 1b, UniProt Q9WMX2, A1176V/C1042I/E1056D/L1047A/L1120M/Q1112P/R1052K/V1062L/V1196I); assay: NS3a protease inhibition FRET assay; format: biochemical; details: ANR-GST fusion, FRET-based protease assay
T1 construct: SNAPtag-NS3a-His6; made in house; host or cells: E. coli BL21(DE3)
Experimental: The potency of ANR against NS3a protease was determined via a FRET assay. Titrations of ANR-GST (3-fold serial dilutions starting at 10 μM) were added to a black 96-well plate (Corning, product number 3720) containing 50 nM SNAPtag-NS3a. Reactions were incubated with NS3a-SNAPtag at room temperature for 1 hour. To each well was simultaneously added substrate M-2235 (Bachem) to a final concentration of 5 μM and reactions were monitored by measuring the fluorescence intensity every minute for 30 minutes at 22° C. on a Perkin Elmer EnVision™ fluorometer (excitation, 360 nm; emission 460 nm). Each measurement was carried out in triplicate. Slopes of the fluorescence increase were compared to a no-protease control. A nonlinear regression model was used to fit curves using GraphPad™ Prism.

NS3a = biological target: T2, NS3a (Hepatitis C virus genotype 1b, UniProt Q9WMX2, A1176V/E1056D/L1047A/L1120M/Q1112P/R1052K/V1062L/V1196I); assay: Fluorescence polarization binding assay (FB50) with FAM-ANR
T2 construct: Avi-His6-NS3a; the text calls the FP protein non-biotinylated) (N); made in house; host or cells: E. coli BL21 (DE3)
Experimental: (§1) The affinities of the NS3a variants for ANR were determined using a fluorescence polarization assay. Fluorescently labeled ANR (FAM-ANR, FIG. 5B) was obtained as a crude mixture from GenScript™ and purified by HPLC. Titrations of recombinant NS3a variants (3-fold serial dilutions, starting at 5 μM) were diluted in FP-Buffer (50 mM HEPES, pH 7.8, 100 mM NaCl, 5 mM DTT, 1% Glycerol, 0.01% Tween, 5% v/v DMSO). These dilutions were added to a wells containing FAM-ANR (final concentration=10 nM). FAM-ANR/NS3a solutions were incubated at room temperature in the dark for 1 hour. Fluorescence polarization was measured on a Perkin Elmer EnVision™ fluorometer (excitation, 495 nm; emission 520 nm). All measurements were carried out in black 96-well plates (Corning, product #: 3720) and run in triplicate. Anisotropy values were obtained and a nonlinear regression model was used to determine binding constants in GraphPad™ Prism.

NS3a* = biological target: T3, NS3a* (Hepatitis C virus genotype 1a, UniProt P27958, C1073S/C1078L/C1185S/I1043Q/I1044E/I1098T/L1039E/L1040E/L1047Q/L1179I/N1200S/P1112Q/Q1106K/T1100M/T1173A); assay: as above
T3 construct: His6-NS3a; made in house; host or cells: E. coli BL21 (DE3)
Experimental: as §1

HeLa cells = assay: Widefield microscopy for signaling phenotype analysis; format: cell-based; details: EGFP-DNCR2-TIAM, BFP-GNCR1-LARG and NS3a-CAAX in HeLa cells
Experimental: Widefield images were collected in an environmental chamber with humidity control, 37° C., and 5% CO2 on a Leica DMi8 automated fluorescence microscope. Cells were plated on glass-bottomed 96-well plates (Cellvis). Plates were treated with 10 μg/mL bovine fibronectin (Sigma Aldrich) for 1 hour and washed once with PBS.
The cell line used was TRex™-HeLa (ThermoFisher Scientific), into which Lifeact-mCherry™ was stably integrated into the doxycycline-regulated Flp-In site by co-transfection of the pCDNA5-FRT/TO-Lifeact-mCherry™ vector with the Flp recombinase plasmid pOG44 (ThermoFisher Scientific) according to manufacturer's protocols. Lifeact-mCherry™ was induced by addition of 1 μg/mL doxycycline to culture media. For expression of signaling effector proteins, 1 day prior to imaging, 5×10^6 cells were transiently transfected with 10 μg DNA in a 100 μL electroporation tip using a Neon transfection system (ThermoFisher Scientific) according to manufacturer's recommendations for HeLa cells. 5×10^3 cells were plated in each well of the 96-well plate used for imaging. Cells recovered in complete DMEM with 10% FBS overnight. […] For Rac/Rho regulation, the construct PB-NS3a-CAAX-IRES-EGFP-DNCR2-TIAM-P2a-BFP-GNCR1-LARG was used, with images collected for the mCherry™ (Lifeact) and EGFP (DNCR2-TIAM) channels. […]

[4] = test system: GFP reporter gene in HEK293T cells; assay: dciCas9-mediated transcription; format: cell-based; details: 10 μM A115 and 10 μM grazoprevir
Experimental: For FACS analysis, 10,000 single cell events were collected for each of the samples run. […] The gathered FACS data were analyzed using FlowJo (v.10.1).

CXCR4 = assay: cells; details: Homo sapiens, read-out: EC50 (CXCR4 expression)
[5] = test system: mCherry reporter gene in HEK293T cells; assay: Chemically-disruptable Gal4(DBD)-NS3a(H1)/ANR-VPR transcriptional regulation; format: cell-based; details: 1 μM drug, 24 hours
Experimental: Cells were subsequently transfected with 1 μg of the Gal4 reporter plasmid (UAS-mCherry™/CMV-Gal4-NS3a(H1)-P2A-ANR-Myc-BFP-VPR-NLS) in OptiMem™. […] Supernatant was subsequently removed and the cells were re-suspended in 400 μL DPBS and analyzed on a FACS LSRII (BD Biosciences).
For Gal4/NS3a-CDP mediated transcriptional activation FACS experiments, 10,000 single cell events were collected for each of the samples run. […] The gathered FACS data were analyzed using FlowJo™ (v.10.1).

C=C[C@@H]1C[C@]1(NC(=O)[C@@H]1C[C@@H](Oc2ncc(OC)c3ccc(Cl)cc23)CN1C(=O)[C@@H](NC(=O)OC(C)(C)C)C(C)(C)C)C(=O)NS(=O)(=O)C1CC1 [asunaprevir]
Colocalization of DNCR1-EGFP and NS3a-mCherry (NS3a in NIH3T3 cells [1]): much lower correlation | transcriptional output state in 3-gene system (GFP, CD95 and CXCR4): no gene expression | DNCR2-EGFP colocalization with mitochondrial Tom20-mCherry-NS3a (NS3a in NIH3T3 cells [2]): neither grazoprevir nor asunaprevir induced DNCR2-EGFP colocalization | phospho-ERK levels in cells expressing NS3a-CDAR [3]: robust increase in phospho-ERK levels

genetically-encoded peptide inhibitor of NS3a, GELDELVYLLDGPGYDPIHSD (SEQ ID NO:14); tested as ANR-GST and FAM-ANR
apparent IC50 against NS3a activity (NS3a protease): less than the concentration of NS3a protease used in the assay | binding to NS3a (NS3a): binds tightly | affinity for NS3a* (NS3a*): very low affinity

C=C[C@@H]1C[C@]1(NC(=O)[C@@H]1C[C@@H]2CN1C(=O)[C@H](C(C)(C)C)NC(=O)O[C@@H]1C[C@H]1CCCCCc1nc3ccc(OC)cc3nc1O2)C(=O)NS(=O)(=O)C1CC1 [grazoprevir]
Colocalization of DNCR1-EGFP and NS3a-mCherry (NS3a in NIH3T3 cells [1]): much lower correlation | cell shape change (HeLa cells): caused cell contraction | transcriptional output state in 3-gene system (GFP, CD95 and CXCR4): CXCR4 expression under control of GNCR1 | GFP expression on co-administration with A115 [4]: reversed | Colocalization of DNCR2-EGFP and GNCR1-BFP with NS3a-mCherry-CAAX (NS3a in NIH3T3 cells [2]; 5 μM drug): GNCR1/NS3a colocalization | Colocalization of NS3a-mCherry with GNCR1-BFP-CAAX or Tom20-DNCR2-EGFP (NS3a in NIH3T3 cells [2]; 5 μM drug, 15 min): exclusively colocalized NS3a-mCherry™ to plasma membrane-targeted GNCR1-BFP-CAAX | DNCR2-EGFP colocalization with mitochondrial Tom20-mCherry-NS3a (NS3a in NIH3T3 cells [2]): neither grazoprevir nor asunaprevir induced DNCR2-EGFP colocalization | EC50 (CXCR4): 0.16 ± 0.03 nM | mCherry expression after drug treatment [5]: decreased mCherry™ expression to background levels | phospho-ERK levels in cells expressing NS3a-CDAR [3]: robust increase in phospho-ERK levels
